Here are results for three molecules from PMC10952572, “Improved PIEZO1 agonism through 4‐benzoic acid modification of Yoda1” (British Journal of Pharmacology, 2023).

Structures are written as SMILES.

In one data set the target is T1, hPIEZO1 (Homo sapiens, UniProt Q92508).
T1 construct: expressed in transfected cells
Nature of the data set: Automated patch clamp (SyncroPatch 384) on hPIEZO1-TREx cells. It counts as cell-based. Particulars: for Effect on M-Stim-evoked currents: hPIEZO1-TREx cells, −80 mV; for Cells responding to activation: hPIEZO1-TREx, 10 μM KC157, 10 μM Yoda1, 5 μM KC159. On the procedure:
For automated patch clamp, cells were cultured and harvested according to Nanion's standard cell culture protocol (Obergrussberger et al., [2014]). hPIEZO1‐TREx cells were induced to express PIEZO1 by incubation with 0.5 μg·ml^−1 tetracycline 24 h prior to experiments. Whole‐cell patch‐clamp recordings were conducted on HEK‐TREx, hPIEZO1‐TREx and mPIEZO1‐TREx cells according to Nanion's standard procedure for the SyncroPatch 384, using medium resistance (4–5 MΩ) chips (Obergrussberger et al., [2018]). Cells were held at −80 mV for the duration of the experiment. The channel was activated by mechanical forces in the absence and presence of the agonists. To stimulate PIEZO1 channels mechanically (mechanical stimulation [M‐Stim]), we dispensed 20 μl of solution (either reference or agonist) locally to the cell at a pipetting speed of 110 μl·s^−1 in synchrony with a triggered recording of the current response at the holding potential. The internal solution contained 110 mM KF, 10 mM KCl, 10 mM NaCl, 10 mM HEPES and 10 mM EGTA, pH adjusted to 7.2 with KOH, and the external solution contained 140 mM NaCl, 4 mM KCl, 2 mM CaCl2, 1 mM MgCl2, 5 mM glucose, 10 mM HEPES, pH adjusted to 7.4 with NaOH, and 0.1% DMSO to match the DMSO concentration of the compound solutions. For PIEZO1 stimulation, KC159, KC157 or Yoda1 was applied directly onto the cells via a pipette application. One chip of the SyncroPatch 384 is equipped with 384 wells served by 384 robotic pipettes and connected to 384 individual amplifiers, allowing us to test 384 distinct cells in one experiment. We tested the effect of each specified analogue on mPIEZO1‐, hPIEZO1‐ and untransfected HEK‐TREx cells in parallel and in comparison to mechanical and Yoda1 stimulation. To estimate the EC50 values, four concentrations of each agonist were tested per cell line in one chip, with each cell receiving single concentrations, and the concentration–response curve was calculated across the whole chip (384 cells). Only cells with seal resistance >0.3 GΩ, series resistance <20 MΩ and cell capacitance >5 and <40 pF were used for analysis.
DataControl 384 (Nanion Technologies GmbH), Prism 9 (GraphPad) and OriginPro 2020 (OriginLab) were used for all analysis of automated patch‐clamp data. For manual and automated patch‐clamp data, n represents the number of cells recorded from successfully in each experimental condition, sampled from two to six batches of cells or 384‐well chips in automated patch clamp. For manual patch‐clamp experiments, each cell/patch recording (n) is considered as an independent experiment because each was made independently at a separate time, using a separate coverslip of cells and using a separate patch pipette. In some instances, more than one such independent recording was made from the same batch of cultured or transfected cells. These n values are considered as independent. Each cell was studied alone and from a separate coverslip in the case for manual patch clamp. To estimate the EC50 values of the agonists in automated patch‐clamp studies, the peak current in the presence of the agonist was normalised to the peak current in the presence of the reference solution. Single‐point concentration–response curves were fitted with a standard Hill equation to estimate EC50 values. P < 0.05 was deemed significant. For automated patch‐clamp experiments, we included some data for n < 5 (Figure 7a,b). […] Such replicates are a feature of, and a rationale for, this automated technology, which is an innovation for the type of research shown here but already commonly used in the pharmaceutical industry for other ion channel studies to increase throughput and avoid waste from large volumes of independent cell cultures and minimise cost from expensive specially engineered plates. As a general strategy, our study used multiple independent technical approaches to address the same or similar questions. […]
A general note: Patch clamp records ionic current or voltage across a cell membrane.

Another data set in a line: Microsomal half-life. Particulars: mouse liver microsomes; for half-life at 1 μM: 1 μM compound. The class given is in vitro ADME. As to the method: Compound half‐lives were measured by Malvern Panalytical (UK). Briefly, microsomal mouse liver microsomes (1 mg protein·ml^−1) were pre‐incubated with NADPH cofactor solution at 37°C. Biotransformation was initiated by addition and mixing of 1 μM test compound in a final volume of 350 μl; 25 μl aliquots were removed at 5 min intervals for 35 min and quenched in 300 μl ice‐cold methanol containing internal standard. The protein in the samples was then precipitated by centrifugation at 4°C, and the supernatant was analysed by LC–MS/MS to quantify the test parent compound remaining at each time point.

Data set [1] has as its target T2, Human recombinant prostanoid EP4 receptors (Homo sapiens, UniProt P35408).
T2 construct: host or cells: Chem-1 cells
As to the kind of experiment: Eurofins Hit Profiling Screen PP70: prostanoid EP4 receptor binding. Particulars: 5 μM. On the procedure:
(§1) These experiments were performed by Eurofins Scientific, and the methods below are from this company's information. Membrane protein/membrane amounts may have varied, and the concentrations used were adjusted as necessary. KC289 was tested at 5 μM.
Human recombinant prostanoid EP4 receptors expressed in Chem‐1 cells were used in modified MES buffer pH 6.0. A 3 μg·ml^−1 (see footnote 1) aliquot was incubated with 1 nM [^3H]PGE2 for 120 min at 25°C. Non‐specific binding was estimated in the presence of 10 μM PGE2 . Receptors were filtered and washed, and the filters were then counted to determine [^3H]PGE2 specifically bound.

The target of data set [2] is T3, human adenosine A2A receptors (Homo sapiens, UniProt P29274).
T3 construct: host or cells: HEK 293 membranes
As to the kind of experiment: Eurofins Hit Profiling Screen PP70: adenosine A2A receptor binding. Particulars: 5 μM. On the procedure:
as §1
This assay measured binding of [^3H]CGS‐21680 to human adenosine A2A receptors. HEK 293 cells stably transfected with a plasmid encoding the human adenosine A2A receptor were used to prepare membranes in modified Tris–HCl pH 7.4 buffer using standard techniques. A 15 μg aliquot of membrane was incubated with […] [^3H]CGS‐21680 for 90 min at 25°C. Non‐specific binding was estimated in the presence of 50 μM NECA. Membranes were filtered and washed three times, and the filters were counted to determine [^3H]CGS‐21680 specifically bound.

In data set [3] the test system is 30 proteins including ion channels and receptors. As to the kind of experiment: Eurofins Hit Profiling Screen PP70: remaining targets. The class given is binding. The note with it: 5 μM; targets other than A2A and EP4. On the procedure: as §1

T1 sequence (Q92508 whole entry): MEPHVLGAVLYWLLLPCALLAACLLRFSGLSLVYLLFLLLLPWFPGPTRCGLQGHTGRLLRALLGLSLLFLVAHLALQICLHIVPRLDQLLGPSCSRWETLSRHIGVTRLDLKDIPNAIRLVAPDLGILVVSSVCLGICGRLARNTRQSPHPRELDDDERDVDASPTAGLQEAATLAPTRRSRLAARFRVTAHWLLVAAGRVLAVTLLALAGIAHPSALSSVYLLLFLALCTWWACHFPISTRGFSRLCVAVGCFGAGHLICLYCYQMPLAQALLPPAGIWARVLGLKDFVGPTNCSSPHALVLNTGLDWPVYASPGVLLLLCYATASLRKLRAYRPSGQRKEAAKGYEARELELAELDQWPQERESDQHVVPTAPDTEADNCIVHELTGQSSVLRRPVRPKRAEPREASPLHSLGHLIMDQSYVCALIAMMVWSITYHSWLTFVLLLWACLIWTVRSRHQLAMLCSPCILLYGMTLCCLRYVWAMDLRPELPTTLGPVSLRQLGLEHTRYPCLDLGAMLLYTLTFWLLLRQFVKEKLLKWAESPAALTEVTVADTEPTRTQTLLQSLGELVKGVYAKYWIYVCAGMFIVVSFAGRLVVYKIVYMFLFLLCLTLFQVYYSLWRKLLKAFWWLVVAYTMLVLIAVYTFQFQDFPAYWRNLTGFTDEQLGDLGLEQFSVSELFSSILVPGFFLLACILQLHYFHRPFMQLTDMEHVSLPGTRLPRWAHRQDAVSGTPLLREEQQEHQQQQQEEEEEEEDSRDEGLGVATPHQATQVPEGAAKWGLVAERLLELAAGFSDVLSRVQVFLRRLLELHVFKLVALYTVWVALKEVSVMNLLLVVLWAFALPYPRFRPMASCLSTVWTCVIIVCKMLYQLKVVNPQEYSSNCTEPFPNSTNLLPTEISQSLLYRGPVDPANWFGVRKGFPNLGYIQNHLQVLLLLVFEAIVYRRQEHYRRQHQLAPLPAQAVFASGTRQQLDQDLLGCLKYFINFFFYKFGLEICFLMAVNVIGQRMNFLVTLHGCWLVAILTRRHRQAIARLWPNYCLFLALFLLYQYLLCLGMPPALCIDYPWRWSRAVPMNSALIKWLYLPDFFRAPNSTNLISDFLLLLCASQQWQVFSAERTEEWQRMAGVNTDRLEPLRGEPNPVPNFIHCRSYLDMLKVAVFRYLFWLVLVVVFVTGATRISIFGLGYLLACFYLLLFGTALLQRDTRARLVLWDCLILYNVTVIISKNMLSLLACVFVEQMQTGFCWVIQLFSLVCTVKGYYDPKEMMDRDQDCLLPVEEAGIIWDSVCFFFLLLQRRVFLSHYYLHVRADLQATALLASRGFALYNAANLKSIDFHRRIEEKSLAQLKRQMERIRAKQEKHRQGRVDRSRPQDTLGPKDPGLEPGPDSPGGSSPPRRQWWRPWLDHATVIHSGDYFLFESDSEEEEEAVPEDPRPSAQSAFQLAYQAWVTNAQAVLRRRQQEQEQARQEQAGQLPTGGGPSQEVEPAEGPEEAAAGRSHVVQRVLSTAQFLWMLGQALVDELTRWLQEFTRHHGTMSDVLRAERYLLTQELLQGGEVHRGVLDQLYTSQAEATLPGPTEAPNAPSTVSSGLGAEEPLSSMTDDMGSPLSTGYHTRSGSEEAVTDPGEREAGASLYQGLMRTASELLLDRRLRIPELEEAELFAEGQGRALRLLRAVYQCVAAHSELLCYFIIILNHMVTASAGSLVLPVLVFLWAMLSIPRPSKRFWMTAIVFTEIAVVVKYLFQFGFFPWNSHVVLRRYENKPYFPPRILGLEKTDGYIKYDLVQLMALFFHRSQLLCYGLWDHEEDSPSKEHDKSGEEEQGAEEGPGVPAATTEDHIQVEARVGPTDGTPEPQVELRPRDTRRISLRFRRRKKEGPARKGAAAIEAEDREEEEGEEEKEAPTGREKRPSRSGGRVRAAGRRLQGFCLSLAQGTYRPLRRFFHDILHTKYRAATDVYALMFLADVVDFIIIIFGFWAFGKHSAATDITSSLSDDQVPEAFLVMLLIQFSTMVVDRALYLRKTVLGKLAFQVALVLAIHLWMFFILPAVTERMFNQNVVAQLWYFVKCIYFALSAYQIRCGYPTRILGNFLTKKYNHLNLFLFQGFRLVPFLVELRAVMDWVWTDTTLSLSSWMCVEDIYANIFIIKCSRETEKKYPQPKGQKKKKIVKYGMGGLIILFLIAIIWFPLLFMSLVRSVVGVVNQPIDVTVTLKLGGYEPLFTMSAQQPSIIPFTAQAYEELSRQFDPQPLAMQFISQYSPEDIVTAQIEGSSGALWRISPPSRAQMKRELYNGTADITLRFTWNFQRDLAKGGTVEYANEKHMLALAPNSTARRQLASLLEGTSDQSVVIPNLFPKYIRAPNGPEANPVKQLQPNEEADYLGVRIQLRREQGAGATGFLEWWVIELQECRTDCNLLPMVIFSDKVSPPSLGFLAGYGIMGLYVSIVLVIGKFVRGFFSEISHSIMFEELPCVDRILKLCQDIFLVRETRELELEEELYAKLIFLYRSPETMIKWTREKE
T2 sequence (P35408 whole entry): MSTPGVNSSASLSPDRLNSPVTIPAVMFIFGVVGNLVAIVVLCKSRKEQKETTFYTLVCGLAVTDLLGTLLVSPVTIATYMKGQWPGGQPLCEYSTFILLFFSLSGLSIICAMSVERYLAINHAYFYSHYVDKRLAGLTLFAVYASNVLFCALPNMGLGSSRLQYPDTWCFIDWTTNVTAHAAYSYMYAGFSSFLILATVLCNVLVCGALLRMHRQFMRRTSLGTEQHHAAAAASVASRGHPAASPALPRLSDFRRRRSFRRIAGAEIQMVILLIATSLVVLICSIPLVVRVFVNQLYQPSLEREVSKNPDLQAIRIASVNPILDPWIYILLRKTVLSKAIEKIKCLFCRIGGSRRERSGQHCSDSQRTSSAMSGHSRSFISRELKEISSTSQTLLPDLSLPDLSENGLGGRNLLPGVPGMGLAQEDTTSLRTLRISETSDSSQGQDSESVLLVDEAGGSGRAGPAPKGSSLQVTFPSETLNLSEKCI
T3 sequence (P29274 whole entry): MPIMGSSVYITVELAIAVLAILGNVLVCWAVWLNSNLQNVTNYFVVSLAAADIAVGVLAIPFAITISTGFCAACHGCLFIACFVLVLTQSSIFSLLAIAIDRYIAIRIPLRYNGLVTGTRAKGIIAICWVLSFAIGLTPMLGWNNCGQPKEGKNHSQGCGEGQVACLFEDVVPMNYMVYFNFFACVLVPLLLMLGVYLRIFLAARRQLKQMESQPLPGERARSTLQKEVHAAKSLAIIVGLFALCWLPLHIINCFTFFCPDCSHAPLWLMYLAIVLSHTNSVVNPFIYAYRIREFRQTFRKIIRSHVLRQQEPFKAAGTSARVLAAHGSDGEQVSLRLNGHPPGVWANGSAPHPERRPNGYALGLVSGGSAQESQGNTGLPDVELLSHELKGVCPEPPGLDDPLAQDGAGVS

For `O=C(O)c1ccccc1-c1nnc(SCc2c(Cl)cccc2Cl)s1` [KC157], the “Effect on M-Stim-evoked currents” value at hPIEZO1 (10 μM) is reported as “mostly fails to evoke responses”. The “Cells responding to activation” value on hPIEZO1 is “largely ineffective”.
In general, half-life refers to the time needed for the level to fall by half in the phase considered. The low end stands for fast loss, the high end for slow loss. The EC50 is the concentration giving half of the maximal effect. Turning to `O=C(O)c1ccc(-c2nnc(SCc3c(Cl)cccc3Cl)s2)cc1` [KC159], in the data set “Microsomal half-life”, the “Microsomal half-life relative to Yoda1” value is on record as “at least 20 times” and the half-life at 1 μM came out at 29.6 min. Besides, the “Effect on M-Stim-evoked currents” value on hPIEZO1 (10 μM) was “greatly amplifies the currents”. Also, the “Sustained component of current as % of peak current” value on hPIEZO1 (10 μM, hPIEZO1 cells, mean ± SD) is on record as −4 ± 2%. In addition, the EC50 at hPIEZO1 (hPIEZO1, normalised peak current, maximum response not certain, read-out: EC50 (estimate)) is around 1.67 µM. In addition, on hPIEZO1, the “Cells responding to activation” value is “more cells to respond compared with Yoda1”.
In the case of `O=C([O-])c1ccc(-c2nnc(SCc3c(Cl)cccc3Cl)s2)cc1.[K+]` [KC289], the “Binding to prostanoid EP4 receptors” value in data set [1] is “modest interaction”. Moreover, in “Microsomal half-life”, the “Microsomal half-life relative to Yoda1” value is recorded as “at least 20 times” and the half-life at 1 μM stood at 24.6 min. In addition, the “Binding to adenosine A2A receptors” value in data set [2] was “modest interaction”. Further, the “Binding to the other proteins of the screen” value in data set [3] was “little or no binding”.
